In US9593112B2, “Substituted pyrazolylpyrazole derivative and use of same as herbicide” (KYOYU AGRI CO., LTD., priority 2013, dated 2017):

How the values were obtained:
Chenopodium album [1] = experiment: Weed foliar treatment test; assay type: in vivo; conditions: foliar spray, 3 weeks
Procedure: (§1) Soil was filled into a 1/6000 are pot followed by seeding with Digitaria ciliaris, Chenopodium album and Amaranthus retroflexus, covering with soil, and cultivating in a glass greenhouse at an average atmospheric temperature of 25° C.
(§2) Wettable powder of Target Compound (I) shown in Table 1 prepared in compliance with the preparation examples were diluted with water to the prescribed amount of chemical and uniformly sprayed onto the weeds using 15 liters of sprayed water per are when Digitaria ciliaris had grown to the 1.0 to 2.0 leaf stage.
(§3) After treating for 3 weeks in a glass greenhouse at an average atmospheric temperature of 25° C., the herbicidal efficacy thereof was investigated.
(§4) Evaluation of herbicidal efficacy was carried out in the same manner as the above-mentioned Test Example 1.

Amaranthus retroflexus [2] = experiment: Weed foliar treatment test; assay type: in vivo; conditions: foliar spray, 3 weeks
Procedure: as §1, §2, §3, §4

Digitaria ciliaris [3] = experiment: Weed foliar treatment test; assay type: in vivo; conditions: foliar spray at 1.0 to 2.0 leaf stage of Digitaria ciliaris, 3 weeks
Procedure: as §1, §2, §3, §4

Echinochloa crus-galli = experiment: Paddy herbicidal activity test; assay type: in vivo; conditions: irrigated paddy pot, treated at 3.5 leaf stage of Echinochloa crus-galli, 30 days
Procedure: (§5) Rice paddy soil was filled into a 1/10000 are pot followed by the addition of suitable amounts of water and chemical fertilizer, kneading, seeding with Echinochloa crus-galli, Monochoria vaginalis and Scirpus juncoides and maintaining in an irrigated state at a water depth of 3 cm.
(§6) Wettable powder of Target Compound (I) shown in Table 1 prepared in compliance with the preparation examples were diluted with a suitable amount of water, rice plants in the 2.0 leaf stage were transplanted during 3.5 leaf stage of Echinochloa crus-galli, and treated by dropping in chemical in the prescribed amount per are using a pipette.
(§7) After treating for 30 days in a glass greenhouse at an average atmospheric temperature of 30° C., the herbicidal efficacy thereof was investigated.
(§8) Evaluation of herbicidal efficacy was carried out by comparing growth inhibition rate (%) with an untreated group, while evaluation of phytotoxicity was carried out by comparing growth inhibition rate (%) with the state of a complete eradication group, and were evaluated at 11 levels indicated below.

Scirpus juncoides = experiment: Paddy herbicidal activity test; assay type: in vivo; conditions: irrigated paddy pot, 30 days
Procedure: as §5, §6, §7, §8

Monochoria vaginalis = experiment: Paddy herbicidal activity test; assay type: in vivo; conditions: irrigated paddy pot, 30 days
Procedure: as §5, §6, §7, §8

Rice plants = experiment: Paddy herbicidal activity test, phytotoxicity to transplanted rice; assay type: in vivo; conditions: rice transplanted at 2.0 leaf stage, 30 days
Procedure: as §5, §6, §7, §8

Chenopodium album [4] = experiment: Farming soil treatment test; assay type: in vivo; conditions: soil surface spray prior to weed growth, 30 days
Procedure: (§9) Field soil was filled into a 1/6000 are pot followed by seeding with Digitaria ciliaris, Chenopodium album and Amaranthus retroflexus and covering with soil.
(§10) Wettable powder of Target Compound (I) shown in Table 1 prepared in compliance with the preparation examples were diluted with water to the prescribed amount of chemical and uniformly sprayed onto each soil surface layer using 10 liters of sprayed water per are prior to weed growth following seeding.
as §7, §4

Amaranthus retroflexus [5] = experiment: Farming soil treatment test; assay type: in vivo; conditions: soil surface spray prior to weed growth, 30 days
Procedure: as §9, §10, §7, §4

Digitaria ciliaris [6] = experiment: Farming soil treatment test; assay type: in vivo; conditions: soil surface spray prior to weed growth, 30 days
Procedure: as §9, §10, §7, §4

Row | SMILES | herbicidal efficacy (growth inhibition level) Chenopodium album (Chenopodium album [1]; 5 g a.i./10 a) | herbicidal efficacy (growth inhibition level) Chenopodium album (Chenopodium album [1]; 10 g a.i./10 a) | herbicidal efficacy (growth inhibition level) Amaranthus retroflexus (Amaranthus retroflexus [2]; 5 g a.i./10 a) | herbicidal efficacy (growth inhibition level) Amaranthus retroflexus (Amaranthus retroflexus [2]; 10 g a.i./10 a) | herbicidal efficacy (growth inhibition level) Digitaria ciliaris (Digitaria ciliaris [3]; 5 g a.i./10 a) | herbicidal efficacy (growth inhibition level) Digitaria ciliaris (Digitaria ciliaris [3]; 10 g a.i./10 a) | herbicidal efficacy (growth inhibition level) Echinochloa crus-galli (Echinochloa crus-galli; 1 g a.i./10 a) | herbicidal efficacy (growth inhibition level) Echinochloa crus-galli (Echinochloa crus-galli; 5 g a.i./10 a) | herbicidal efficacy (growth inhibition level) Scirpus juncoides (Scirpus juncoides; 1 g a.i./10 a) | herbicidal efficacy (growth inhibition level) Scirpus juncoides (Scirpus juncoides; 5 g a.i./10 a) | herbicidal efficacy (growth inhibition level) Monochoria vaginalis (Monochoria vaginalis; 1 g a.i./10 a) | herbicidal efficacy (growth inhibition level) Monochoria vaginalis (Monochoria vaginalis; 5 g a.i./10 a) | phytotoxicity (growth inhibition level) Rice plants (Rice plants; 1 g a.i./10 a) | phytotoxicity (growth inhibition level) Rice plants (Rice plants; 5 g a.i./10 a) | herbicidal efficacy (growth inhibition level) Chenopodium album (Chenopodium album [4]; 5 g a.i./10 a) | herbicidal efficacy (growth inhibition level) Chenopodium album (Chenopodium album [4]; 10 g a.i./10 a) | herbicidal efficacy (growth inhibition level) Amaranthus retroflexus (Amaranthus retroflexus [5]; 5 g a.i./10 a) | herbicidal efficacy (growth inhibition level) Amaranthus retroflexus (Amaranthus retroflexus [5]; 10 g a.i./10 a) | herbicidal efficacy (growth inhibition level) Digitaria ciliaris (Digitaria ciliaris [6]; 5 g a.i./10 a) | herbicidal efficacy (growth inhibition level) Digitaria ciliaris (Digitaria ciliaris [6]; 10 g a.i./10 a) | also measured
1 | C#CCNc1c(C#N)cnn1-c1nn2c(c1Cl)CCCC2 [4.85, 4.156] | 5 (5: 50% to less than 60%) | 6 (6: 60% to less than 70%) | 4 (4: 40% to less than 50%) | 6 (6: 60% to less than 70%) | 3 (3: 30% to less than 40%) | 5 (5: 50% to less than 60%) | 2 (2: 20% to less than 30%) | 3 (3: 30% to less than 40%) | 0 (0 (exponent): 0% to less than 10% (growth inhibition rate)) | 1 (1: 10% to less than 20%) | 1 (1: 10% to less than 20%) | 3 (3: 30% to less than 40%) | 2 (2: 20% to less than 30%) | 2 (2: 20% to less than 30%) | 4 (4: 40% to less than 50%) | 5 (5: 50% to less than 60%) | 3 (3: 30% to less than 40%) | 6 (6: 60% to less than 70%) | 3 (3: 30% to less than 40%) | 4 (4: 40% to less than 50%) | –
2 | C#CCCNc1c(C#N)cnn1-c1nn2c(c1Cl)CCCC2 [Compound 1, 1-(3-chloro-4,5,6,7-tetrahydropyrazolo[1,5-a]pyridin-2-yl)-5-(but-3-ynylamino)pyrazole-4-carbonitrile] | 10 (10: 100%) | 10 (10: 100%) | 10 (10: 100%) | 10 (10: 100%) | 10 (10: 100%) | 10 (10: 100%) | 9 (9: 90% to less than 100%) | 10 (10: 100%) | 8 (8: 80% to less than 90%) | 10 (10: 100%) | 9 (9: 90% to less than 100%) | 10 (10: 100%) | 0 (0 (exponent): 0% to less than 10% (growth inhibition rate)) | 1 (1: 10% to less than 20%) | 10 (10: 100%) | 10 (10: 100%) | 10 (10: 100%) | 10 (10: 100%) | 10 (10: 100%) | 10 (10: 100%) | melting point: 130 to 131 °C
3 | CC#CCNc1c(C#N)cnn1-c1nn2c(c1Cl)CCCC2 [4.131, 4.132] | 4 (4: 40% to less than 50%) | 5 (5: 50% to less than 60%) | 4 (4: 40% to less than 50%) | 6 (6: 60% to less than 70%) | 3 (3: 30% to less than 40%) | 4 (4: 40% to less than 50%) | 3 (3: 30% to less than 40%) | 4 (4: 40% to less than 50%) | 1 (1: 10% to less than 20%) | 3 (3: 30% to less than 40%) | 0 (0 (exponent): 0% to less than 10% (growth inhibition rate)) | 1 (1: 10% to less than 20%) | 1 (1: 10% to less than 20%) | 1 (1: 10% to less than 20%) | 3 (3: 30% to less than 40%) | 4 (4: 40% to less than 50%) | 4 (4: 40% to less than 50%) | 5 (5: 50% to less than 60%) | 3 (3: 30% to less than 40%) | 4 (4: 40% to less than 50%) | –
4 | C#CCN(C)c1c(C#N)cnn1-c1nn2c(c1Cl)CCCC2 [Compound 4.73, 1-(3-chloro-4,5,6,7-tetrahydropyrazolo[1,5-a]pyridin-2-yl)-5-[methyl(prop-2-ynyl)amino]pyrazole-4-carbonitrile] | 2 (2: 20% to less than 30%) | 3 (3: 30% to less than 40%) | 3 (3: 30% to less than 40%) | 3 (3: 30% to less than 40%) | 1 (1: 10% to less than 20%) | 2 (2: 20% to less than 30%) | 2 (2: 20% to less than 30%) | 4 (4: 40% to less than 50%) | 0 (0 (exponent): 0% to less than 10% (growth inhibition rate)) | 1 (1: 10% to less than 20%) | 3 (3: 30% to less than 40%) | 4 (4: 40% to less than 50%) | 0 (0 (exponent): 0% to less than 10% (growth inhibition rate)) | 1 (1: 10% to less than 20%) | 1 (1: 10% to less than 20%) | 2 (2: 20% to less than 30%) | 1 (1: 10% to less than 20%) | 2 (2: 20% to less than 30%) | 0 (0 (exponent): 0% to less than 10% (growth inhibition rate)) | 1 (1: 10% to less than 20%) | –
